Data on one molecule can be found in patent US12377167B2, “Application of AuCs or substances containing AuCs in the preparation of drugs for preventing and/or treating glaucoma” (Shenzhen Profound-View Pharma Tech Co., Ltd, priority 2016, dated 2025).

The target of test [1] is T1, Aβ(1-40) (Homo sapiens, UniProt P05067).
T1 construct: Freeze-dried powder of amyloid polypeptide Aβ(1-40) (Invitrogen Corp.); purchased Invitrogen Corp
In words: In vitro Aβ(1-40) aggregation kinetics, ThT fluorescent labeling method. The test is classed as biochemical. The settings on record: 20 μM Aβ(1-40); L-NIBC 1.0 and 10.0 ppm; gold nanoparticles up to 20.0 ppm. The text has this:
As described above, Aβ plays an important role in the pathogenesis of glaucoma and is an important target for treatment of glaucoma based on the optic nerve protection mechanism. […] Moreover, the function is from AuCs other than ligand. […] Thioflavin T (abbreviation: ThT) is a dye specifically for dyeing amyloid fibers. […] When it encounters amyloid polypeptides or proteins with a fiber structure, it will immediately couple with the amyloid polypeptides or proteins and its fluorescence intensity will increase exponentially. Just because of this property, ThT is widely used as a marker to monitor amyloidosis of peptides or proteins. The fibrosis process of Aβ(1-40) is also a nucleation-controlled polymerization process. Therefore, the growth curve of Aβ(1-40) fiber measured by ThT fluorescent labeling method is mainly divided into three stages: Initial stage, growth stage and platform stage. The initial stage is mainly a stage when Aβ(1-40) undergoes conformational transition to form misfolding and then aggregates and nucleates. […] All the Aβ(1-40) PBS solutions for the experiments were prepared freshly. […] The samples were incubated continuously in a 96-well plate at 37° C. by ThT fluorescent labeling method, and monitored the fluorescence intensity by microplate reader once every 10 minutes.

For test [2], the system named is RGC-5 cells. In words: NMDA-induced RGC-5 cell excitotoxicity model, CCK-8. The settings on record: 250 μM NMDA, 0.01-10 ppm. The test is classed as cell-based.
Procedure: This embodiment used cell survival rate as an index.
RGC-5 cells in logarithmic growth phase were diluted with complete medium to get a cell suspension in a density of 5×10^4/mL. The suspension was inoculated 100 μL per well into a 96-well plate, and cultivated in an incubator with 5% CO2 at 37° C. One of administration ways in an experiment group is: The original culture medium was removed when the cells attached to the wells, and 50 μL test substances (the test substances were: three kinds of L-NIBC-modified AuCs in particle sizes of 2.6 nm, 1.8 nm or 1.1 nm, or four kinds of L-NIBC-modified gold nanoparticles in particle sizes of 18.2 nm, 10.1 nm, 6.0 nm or 3.6 nm, or L-NIBC molecules not bonded with AuCs or gold nanoparticles as reference) solutions at different concentrations prepared by maintenance medium were added to different wells to make the final concentration be 0.01, 0.05, 0.1, 0.5, 1, 5 and 10 ppm respectively, then 50 μL of NMDA (the final concentration was 250 μM) was added to the administration group and model group after 2 hours' pretreatment. […] The absorbance value of each well at 450 nm wave length was measured to evaluate the pre-protective effect of AuCs on NMDA injury. […] The absorbance value of each well at 450 nm wave length was measured to evaluate the curative effect of AuCs on NMDA injury. […]
Test [3] has as its target T1, Aβ(1-40). In words: AFM topography of Aβ(1-40) after 48 h co-incubation. The test is classed as biochemical. As to conditions: co-incubated for 48 h. On the procedure: Panel A is the AFM topography after Aβ(1-40) was incubated alone for 48 h. Panel B is an AFM topography after Aβ(1-40) was coincubated with L-NIBC for 48 h. Panel C and panel D are AFM topographies after Aβ(1-40) was coincubated with gold nanoparticles with an average particle size of 6.0 nm and 3.6 nm respectively (modified with L-NIBC) for 48 h. And panel E is an AFM topography after Aβ(1-40) was coincubated with AuCs in an average particle size of 1.8 nm (modified with L-NIBC) for 48 h.

The subject of test [4] is RGC-5 cells. Put plainly: H2O2-induced RGC-5 cell oxidative stress injury model, CCK-8 cell viability. The test is classed as cell-based.
Procedure: (§1) The cell viability was used as an index in the experiment of this embodiment.
RGC-5 cells in logarithmic growth phase were diluted with complete medium (MEM+10% FBS+1% penicillin-streptomycin) to get a cell suspension in a density of 5×10^4/mL. The suspension was inoculated 100 μL per well into a 96-well plate, and cultivated in an incubator with 5% CO2 at 37° C. One of administration ways in an experiment group is: The original culture medium was removed when the cells attached to the wells, and 50 μL test substances (the test substances were: three kinds of L-NIBC-modified AuCs in particle sizes of 2.6 nm, 1.8 nm or 1.1 nm, or four kinds of L-NIBC-modified gold nanoparticles in particle sizes of 18.2 nm, 10.1 nm, 6.0 nm or 3.6 nm, or L-NIBC molecules not bonded with AuCs or gold nanoparticles as reference) solutions at different concentrations prepared by maintenance medium (DMEM medium+2% FBS+1% penicillin-streptomycin) were added to different wells to make the final concentration be 0.01, 0.05, 0.1, 0.5, 1, 5 and 10 ppm respectively, then 50 μL of H2O2 (the final concentration was 100 μM) was added to the administration group and model group after 2 hours' pretreatment. The cells were incubated for 24 h, then 10% CCK-8 was added to each well and incubated for 4 h. […]
The subject of test [5] is RGC-5 cells. In words: Sodium nitroprusside (SNP)-induced RGC-5 apoptosis model, CCK-8 cell viability. In kind it is cell-based.
Procedure: as §1
RGC-5 cells in logarithmic growth phase were diluted with complete medium to get a cell suspension in a density of 5×10^4/mL. The suspension was inoculated 100 μL per well into a 96-well plate, and cultivated in an incubator with 5% CO2 at 37° C. […] The absorbance value of each well at 450 nm wave length was measured to evaluate the pre-protective effect of AuCs on SNP injury. […] The absorbance value of each well at 450 nm wave length was measured to evaluate the curative effect of AuCs on SNP injury. […]
RGC-5 cells in logarithmic growth phase were diluted with complete medium to get a cell suspension in a density of 5×10^4/mL. […] The absorbance value of each well at 450 nm wave length was measured to evaluate the pre-protective effect of AuCs on SNP injury. […]

T1 sequence (P05067 672-711 limits assumed): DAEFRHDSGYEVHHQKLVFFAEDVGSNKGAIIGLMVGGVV

Turning to `CC(C)C(=O)N[C@@H](CS)C(=O)O` [L-NIBC, N-isobutyryl-L-cysteine], the “effect on Aβ(1-40) amyloidosis kinetics” value on Aβ(1-40) [1] is given as “no obvious effect on Aβ(1-40) amyloidosis kinetics”. Besides, the “effect on cell viability / neurotransmitter mediated excitatory RGC apoptosis” value with RGC-5 cells [2] is reported as “did not have an obvious effect”. For the same molecule, the “Aβ(1-40) fibers in AFM topography” value at Aβ(1-40) [3] is listed as “no obvious effect on the formation of Aβ(1-40) fibers”. In the test on RGC-5 cells [4] (H2O2-injured RGC cell model, CCK-8), the “effect on cell viability / RGC apoptosis triggered by oxidative stress” value is reported as “did not have an obvious effect”. Moreover, the viability at 10 ppm worked out at 47.5 ± 6.6% in the test with RGC-5 cells [4] (RGC5, 10 ppm, H2O2, 24 h, read-out: cell viability relative to the blank control group (set to be 100%)) and 52.8 ± 8% in the test with RGC-5 cells [5] (RGC5, 10 ppm, 700 μM SNP, 24 h, read-out: cell viability relative to the blank control group (set to be 100%)). In addition, the “effect on cell viability / SNP-induced RGC apoptosis” value in the test with RGC-5 cells [5] (SNP-injured RGC cell model, CCK-8) was “did not have an obvious protective effect”.

The term viability denotes a per cent measure of how many cells are alive, often set against a control.
